Laboratory results from EP4635958A1, “PYRIMIDINE-CONTAINING POLYCYCLIC DERIVATIVE INHIBITOR, AND PREPARATION METHOD THEREFOR AND USE THEREOF” (Shanghai Hansoh Biomedical Co., Ltd., priority 2022, dated 2024).
Where two headings read alike, the source gives them in different places.

What was measured:
p-ERK in AGS cells = assay: Inhibition of p-ERK in AGS cells (LANCE Ultra phospho-ERK1/2 kit); type: cell-based; conditions: Homo sapiens, AGS, 2 h, read-out: AGS_pERK IC50
Procedure: 1. Experimental objective: The inhibition activity of the example compounds on the phosphorylated ERK level in KRAS G12D mutant cells AGS was determined. 2. Experimental instruments: • 2.1 Instruments: Envison; Pipette (Eppendorf & Rainin) • 2.2 Reagents: AGS cells were purchased from COBIOER BIOSCIENCES CO., LTD, with a catalog number of CBP60476; Phosphorylated ERK1/2 (T202-Y204) LANCE Ultra Cellular Detection Kit was purchased from PerkinElmer, with a catalog number of TRF4000M; RPMI 1640 was purchased from Gibco, with a catalog number of 22400071; FBS was purchased from Gibco, with a catalog number of 10091148; PBS was purchased from Gibco, with a catalog number of 10010023; trypsin was purchased from Gibco, with a catalog number of 25200056; cell culture plates were purchased from Corning Company, with a catalog number of 3610; White opaque OptiPlate™-384 plates were purchased from PerkinElmer, with a catalog number of 6007290. 3. Experimental method: When AGS cells were cultured to appropriate confluence, the AGS cells were collected, and the cell density was adjusted to 4 × 10^5/mL using complete culture medium. The cell suspension was plated onto a 96-well plate at 100 µL per well, and the plate was placed in the incubator at 37°C and 5% CO2 for adherent culture overnight. Solutions of the compound with different concentrations were formulated using DMSO and complete culture medium, and a vehicle control was set up. The solutions of the compound were added to the 96-well plate at 25 µL per well, and the plate was placed in the incubator at 37°C and 5% CO2 for further culture for 2 h. Then, the supernatant of the cell culture plate was discarded, 50 µL of lysis buffer was added to each well, the cells were lysed at room temperature under shaking for 30 min, then placed in a centrifuge and centrifuged at 1000 rpm for 1 min. 15 µL of supernatant was transferred to a 384-well plate, 5 µL of detection mixture was added to each well (Eu-labeled anti-ERK1/2 (T202-Y204) Antibody at a final detection concentration of 0.5 nM and ULight labeled anti-ERK1/2 Antibody at a final detection concentration of 5 nM), centrifuged at 1000 rpm for 1 min, mixed evenly, and reacted at room temperature overnight. The plate was read using Envison and the signal values at the emission wavelengths of 620 nm and 665 nm were detected using a time-resolved fluorescence program. 4. […] Graphpad Prism software was used to fit the concentration and inhibition rate to a nonlinear regression curve, so as to obtain the IC50 value. Table 5: Inhibition activity of the compounds on p-ERK in AGS cells

[1] = Pharmacokinetic determination in rats (IV and PO, plasma, LCMS/MS); type: in vivo, SD rats; conditions: male SD rats; for AUC(0-inf) / C0 / clearance / half-life / Cmax / Tmax: rat, in vivo, overnight fasting, plasma; for AUC(0-inf): read-out: AUCo-∞; for C0: read-out: C0; for clearance: read-out: CL; for half-life: read-out: T1/2 (converted); for Cmax: read-out: Cmax; for Tmax: read-out: Tmax
Method in brief: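 Male SD rats (3/group), fasted overnight, dosed PO at 30 mg/kg in 10% Captisol/50 mM citrate pH 5.0 or IV at 1 mg/kg in 5% DMSO/10% Solutol HS15/85% PBS. Jugular plasma (EDTA-2K) sampled predose to 24 h; analysed by LCMS/MS.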

[2] = Plasma stability test, human plasma; type: in vitro ADME; conditions: Human plasma, 37°C; for half-life: read-out: t1/2 (converted);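 as to all read-outs here: test compound incubated in human plasma, quantified by LC-MS/MS (positive-ion ESI, MRM) against an internal standard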
Procedure: Liquid chromatography-mass spectrometer, centrifuge, vortexer, pipette, continuous dispenser, 96-well plate, 50% methanol aqueous solution, acetonitrile solution containing internal standard, blank matrix (plasma of rat, dog, or human), Propantheline (propantheline bromide), Mevinolin (lovastatin), and test compound.
After whole blood was collected from animals or humans, it was placed in a test tube containing an anticoagulant and centrifuged at 3500 rpm for 10 min to collect the upper pale yellow plasma.
The compound was weighed and the stock solution was formulated with DMSO and the working solution was formulated with 100 mM phosphate buffer.
• Instrument: API4000 liquid chromatography-mass spectrometer, AB Company, USA; • the ion source was electrospray ionization source (ESI); • drying gas (N2) temperature was 500°C; • electrospray voltage was 5500V; • the detection method was positive ion detection; • the scanning method was selected reaction monitoring (MRM); • the scanning time was 0.1s.

Structure (SMILES) | IC50 (p-ERK in AGS cells) | F ([1]; PO 30 mg/kg vs IV 1 mg/kg) | AUC(0-inf) ([1]; IV, 1 mg/kg) | C0 ([1]; IV, 1 mg/kg) | clearance ([1]; IV, 1 mg/kg) | half-life ([1]; IV, 1 mg/kg) | AUC(0-inf) ([1]; PO, 30 mg/kg) | Cmax ([1]; PO, 30 mg/kg) | half-life ([1]; PO, 30 mg/kg) | Tmax ([1]; PO, 30 mg/kg) | Remaining rate (%) 0 min [2] | Remaining rate (%) 15 min [2] | Remaining rate (%) 30 min [2] | Remaining rate (%) 60 min [2] | Remaining rate (%) 120 min [2] | half-life [2]
C#Cc1c(F)ccc2cc(O)cc(-c3nc4c5c(nc(OCC6(CN7CCC(=C(F)F)CC7)CC6)nc5c3F)N3C[C@H]5CC[C@H](N5)[C@H]3CO4)c12 [Example 1-1, 4-((5aS,6S,9R)-12-((1-((4-(difluoromethylene)piperidin-1-yl)methyl)cyclopropyl)methoxy)-1-fluoro-5a,6,7,8,9,10-hexahydro-5H-4-oxa-3,10a,11,13,14-pentaaza-6,9-methylenenaphtho[1,8-ab]heptalene-2-yl)-5-ethynyl-6-fluoronaphthalen-2-ol] | 7 nM | 2.1% | 2960 ng·h/mL | 1770 ng/mL | 5.6 mL/min/kg | 16.3 h | 1890 ng·h/mL | 254 ng/mL | 5.1 h | 6 h | 100.00% | 100.68% | 101.72% | 97.62% | 88.35% | 31.4 h
[2H]C([2H])([2H])[C@@H]1Oc2nc(-c3cc(O)cc4ccc(F)c(C#C)c34)c(F)c3nc(OCC4(CN5CCC(=CF)CC5)CC4)nc(c23)N2C[C@H]3CC[C@H](N3)[C@@H]12 [Example 164] | 3.6 nM |  | 774 ng·h/mL | 838 ng/mL | 21.5 mL/min/kg | 17.6 h | 1580 ng·h/mL | 135 ng/mL | 14 h | 2 h | 100.00% | 97.48% | 91.02% | 93.68% | 89.66% | 30.3 h
